This note sets out measurements from patent US7728012B2, “Carboxamide compounds and their use as calpain inhibitors” (Abbott GmbH & Co. KG, priority 2006, dated 2010).

SMILES strings stand for the structures. Some results are limits rather than exact numbers.

Format in all cases: biochemical
The target in assay [1] is T1, cathepsin B isolated from human liver (Homo sapiens, UniProt P07858).
T1 construct: cathepsin B—isolated from human liver; purchased Calbiochem 219362; host or cells: human liver (tissue isolate)
In words: Cathepsin B kinetic fluorescence enzyme inhibition assay. To be noted: selectivity ratio versus calpain I. In short, it runs like this:
(§1)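 cat B 0.25 nM + Z-Phe-Arg-AMC 100 μM; cat L 1 nM + Z-Phe-Arg-AMC 2 μM; cat S 0.5 nM (E. coli-expressed) + Z-Val-Val-Arg-AMC 20 μM. 50 mM MES pH 6.0, 2.5 mM L-Cys, RT. Ex 390/em 460, kinetic; Ki app = Cheng-Prusoff from IC50, mean of 2–4 curves.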

In assay [2] the target is T2, calpain-I isolated from human erythrocytes (Homo sapiens, UniProt P07384).
T2 construct: calpain-I—isolated from human erythrocytes; purchased Calbiochem 208713; host or cells: human erythrocytes (tissue isolate)
T2 sequence (P07384 1-714): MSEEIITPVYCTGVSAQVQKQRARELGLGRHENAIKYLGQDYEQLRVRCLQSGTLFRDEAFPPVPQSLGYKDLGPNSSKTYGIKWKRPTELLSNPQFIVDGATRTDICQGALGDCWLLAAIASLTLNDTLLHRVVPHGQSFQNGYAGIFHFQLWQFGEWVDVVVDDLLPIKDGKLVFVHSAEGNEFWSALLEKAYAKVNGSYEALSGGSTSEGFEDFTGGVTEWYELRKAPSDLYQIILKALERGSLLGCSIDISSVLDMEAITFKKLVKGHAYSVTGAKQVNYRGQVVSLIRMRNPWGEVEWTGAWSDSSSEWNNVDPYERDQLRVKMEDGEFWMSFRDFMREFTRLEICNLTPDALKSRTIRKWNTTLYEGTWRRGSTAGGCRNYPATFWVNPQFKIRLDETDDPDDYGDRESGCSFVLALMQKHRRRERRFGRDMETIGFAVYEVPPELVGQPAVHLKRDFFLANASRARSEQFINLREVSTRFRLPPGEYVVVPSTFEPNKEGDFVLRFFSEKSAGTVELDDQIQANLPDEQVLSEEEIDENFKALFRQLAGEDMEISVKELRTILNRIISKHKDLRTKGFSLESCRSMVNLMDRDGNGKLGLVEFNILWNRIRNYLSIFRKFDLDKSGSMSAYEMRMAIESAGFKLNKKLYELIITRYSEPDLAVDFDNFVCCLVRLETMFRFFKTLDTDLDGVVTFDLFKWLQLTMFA
T2 sequence (P04632 1-268 partner): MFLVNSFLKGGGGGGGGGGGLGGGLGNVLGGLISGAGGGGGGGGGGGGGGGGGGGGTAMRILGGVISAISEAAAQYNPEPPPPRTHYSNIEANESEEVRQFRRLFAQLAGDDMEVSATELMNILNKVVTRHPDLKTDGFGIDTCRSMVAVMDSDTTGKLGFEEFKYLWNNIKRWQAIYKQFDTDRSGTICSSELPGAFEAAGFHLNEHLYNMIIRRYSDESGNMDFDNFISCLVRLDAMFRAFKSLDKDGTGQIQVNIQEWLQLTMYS
In words: Calpain I kinetic fluorescence enzyme inhibition assay. To be noted: apparent Ki from IC50 by Cheng-Prussoff; average of 2 to 4 dose-effect plots.

The target in assay [3] is T3, cathepsin L isolated from human liver (Homo sapiens, UniProt P07711).
T3 construct: cathepsin L—isolated from human liver; purchased Calbiochem 219402; host or cells: human liver (tissue isolate)
The assay can be described thus: Cathepsin L kinetic fluorescence enzyme inhibition assay. To be noted: selectivity ratio versus calpain I. In short, it runs like this:
as §1

For assay [4], the target named is T4, cathepsin K activated from recombinant human procathepsin K (Homo sapiens, UniProt P43235).
T4 construct: purchased Calbiochem 342001; host or cells: E. coli
T4 sequence (P43235 115-329): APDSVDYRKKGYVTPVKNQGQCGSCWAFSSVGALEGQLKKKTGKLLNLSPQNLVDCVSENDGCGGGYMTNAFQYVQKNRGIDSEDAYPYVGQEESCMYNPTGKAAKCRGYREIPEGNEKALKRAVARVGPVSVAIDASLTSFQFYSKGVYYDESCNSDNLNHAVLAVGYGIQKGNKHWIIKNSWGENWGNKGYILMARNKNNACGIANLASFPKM
In words: Cathepsin K kinetic fluorescence enzyme inhibition assay. To be noted: selectivity ratio versus calpain I. The protocol: The following solutions and buffers were employed: • HBS (for 40 ml): 800 μl M HEPES; 2.16 ml 100 mM KCl; 4.8 ml 1M NaCl; 3.59 ml 5% glucose; 60 μl μM MgSO4; 400 μl 100 mM Na pyruvate, 28.19 ml water; pH 7.2-7.5. • lysis buffer (for 20 ml): 400 μl M Tris pH 8.2; 2.74 ml 1M NaCl; 520 μl 0.5M EDTA; 2 ml 10% triton X-100; 0.8 ml (=1:25) CompletePlus (1 tablet/2 ml H2O); 200 μl 100 mM Pefabloc; 13.34 ml water, pH 8.2. • TBST (10×) (for 1 l): 100 mM Tris (12.1 g); 1.5M NaCl (87 g); 1% Tween 20 (10 g), adjusted to pH 8. I Enzyme Inhibition In Vitro: • Testing for blockade of the corresponding enzymic activities was carried out by means of kinetic fluorescence assays (excitation 390 nm, emission 460 nm). • Apparent Ki values were calculated from the experimentally determined IC50 values by the Cheng-Prussoff relation assuming a reversible competitive enzyme inhibition. The Km values of the substrates used under the assay conditions indicated above were: 90 μM (Z-Phe-Arg-AMC, cathepsin B), 10 μM (Z-Gly-Pro-Arg-AMC, cathepsin K), 2 μM (Z-Phe-Arg-AMC, cathepsin L), and 30 μM (Z-Val-Val-Arg-AMC, cathepsin S). • The indicated Ki values are averages of the inhibition constants calculated on the basis of 2 to 4 independent dose-effect plots.
The following assays were used: • 1. Calpain I: • 20 nM calpain-I—isolated from human erythrocytes (Calbiochem #208713), 100 μM Suc-Leu-Tyr-AMC (Bachem #1-1355) as substrate in buffer with 62 mM imidazole, 0.3 mM CaCl2, 0.10% CHAPS, 0.05% BSA, 1 mM DTT at pH 7.3 and room temperature. • 2. Cathepsin B: • 0.25 nM cathepsin B—isolated from human liver (Calbiochem #219362), 100 μM Z-Phe-Arg-AMC (Bachem #I-1160) as substrate 50 mM MES, 2 mM EDTA, 0.05% Brij 35, 2.5 mM L-cysteine, pH 6.0, room temperature. • 3. Cathepsin K: • 3 nM cathepsin K—activated from recombinant human procathepsin K from E. coli (Calbiochem #342001), 10 μM Z-Gly-Pro-Arg-AMC (Biomol #P-142) as substrate in 50 mM MES, 2 mM EDTA, 0.05% Brij 35, 2.5 mM L-cysteine, pH 6.0, room temperature. • 4. Cathepsin L: • 1 nM cathepsin L—isolated from human liver (Calbiochem #219402), 2 μM Z-Phe-Arg-AMC (Bachem #1-1160) as substrate in 50 mM MES, 2 mM EDTA, 0.05% Brij 35, 2.5 mM L-cysteine, pH 6.0, room temperature. • 5. Cathepsin S: • 0.5 nM recombinant human cathepsin S from E. coli (Calbiochem #219343), 20 μM Z-Val-Val-Arg-AMC (Bachem #1-1540) as substrate in 50 mM MES, 2 mM EDTA, 0.05% Brij 35, 2.5 mM L-cysteine, pH 6.0, room temperature. • The results of the in vitro determination are indicated in Table 1. The following abbreviations are used in Table 1: • The “Calpain activity” column, ++ stands for a calpain Ki (Ki(calpain)) of ≦40 nM and + means: 40 nM<Ki(Calpain)≦100 nM. • The “Sel. cat. B” column indicates the Ki(cathepsin B)/Ki(calpain) ratio. In this connection, ++ means a Ki(cathepsin B)/Ki(calpain) ratio of ≧30 and + means 10≦Ki(cathepsin B)/Ki(calpain)<30. • The “Sel. cat. K” column indicates the Ki(cathepsin K)/Ki(calpain) ratio. In this connection, ++ means a Ki(cathepsin K)/Ki(calpain) ratio of ≧30 and + means 10≦Ki(cathepsin K)/Ki(calpain)<30. • The “Sel. cat. L” column indicates the Ki(cathepsin L)/Ki(calpain) ratio. In this connection, ++ means a Ki(cathepsin L)/Ki(calpain) ratio of ≧50 and + means 30≦Ki(cathepsin L)/Ki(calpain)<50. • The “Sel. cat. S” column indicates the Ki(cathepsin S)/Ki(calpain) ratio. In this connection, ++ means a Ki(cathepsin S)/Ki(calpain) ratio of ≧100 and + means 50≦Ki(cathepsin S)/Ki(calpain)<100.

For assay [5], the target named is T5, recombinant human cathepsin S (Homo sapiens, UniProt P25774).
T5 construct: purchased Calbiochem 219343; host or cells: E. coli
In words: Cathepsin S kinetic fluorescence enzyme inhibition assay. To be noted: selectivity ratio versus calpain I. Put shortly: as §1

T5 sequence (P25774 115-331): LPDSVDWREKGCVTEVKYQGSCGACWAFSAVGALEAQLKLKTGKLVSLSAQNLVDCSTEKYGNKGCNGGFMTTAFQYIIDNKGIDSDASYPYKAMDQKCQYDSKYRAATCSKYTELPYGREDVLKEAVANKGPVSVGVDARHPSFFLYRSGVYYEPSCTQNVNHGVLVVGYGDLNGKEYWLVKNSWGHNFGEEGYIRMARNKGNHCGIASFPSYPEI
T3 sequence (P07711 114-333): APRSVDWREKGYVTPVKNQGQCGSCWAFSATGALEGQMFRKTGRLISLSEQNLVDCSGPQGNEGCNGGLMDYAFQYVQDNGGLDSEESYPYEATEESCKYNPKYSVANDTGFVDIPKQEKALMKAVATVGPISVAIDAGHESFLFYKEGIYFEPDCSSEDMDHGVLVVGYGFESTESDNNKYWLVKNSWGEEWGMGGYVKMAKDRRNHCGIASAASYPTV

As for `NC(=O)C(=O)C(Cc1ccccc1)NC(=O)c1cccnc1-n1ccc(-c2ccccc2)n1` (stereo not drawn) [Example 5, N-(3-Amino-1-benzyl-2,3-dioxopropyl)-2-(3-phenyl-1H-pyrazol-1-yl)nicotinamide], the “Sel cat. B (Ki(cathepsin B)/Ki(calpain) ratio)” value in assay [1] was “+ (10≦Ki(cathepsin B)/Ki(calpain)<30)”. For the same compound, the Ki in assay [2] was at most 40 nM. The “Sel cat. L (Ki(cathepsin L)/Ki(calpain) ratio)” value in assay [3] is on record as “++ (Ki(cathepsin L)/Ki(calpain) ratio of ≧50)”. Also, in assay [4], the “Sel cat. K (Ki(cathepsin K)/Ki(calpain) ratio)” value is given as “+ (10≦Ki(cathepsin K)/Ki(calpain)<30)”. In assay [5], the “Sel cat. S (Ki(cathepsin S)/Ki(calpain) ratio)” value was “++ (Ki(cathepsin S)/Ki(calpain) ratio of ≧100)”.
As to `NC(=O)C(=O)C(Cc1ccccc1)NC(=O)c1cccnc1-n1ccc(-c2ccccn2)n1` (stereo not drawn) [Example 35, N-(3-Amino-1-benzyl-2,3-dioxopropyl)-2-(3-pyridin-2-yl-1H-pyrazol-1-yl)nicotinamide], in assay [1], the “Sel cat. B (Ki(cathepsin B)/Ki(calpain) ratio)” value was “+ (10≦Ki(cathepsin B)/Ki(calpain)<30)”. In addition, in assay [2], the Ki lay in the range of 40 to 100 nM. The “Sel cat. L (Ki(cathepsin L)/Ki(calpain) ratio)” value in assay [3] is “++ (Ki(cathepsin L)/Ki(calpain) ratio of ≧50)”. For the same compound, the “Sel cat. K (Ki(cathepsin K)/Ki(calpain) ratio)” value in assay [4] was “+ (10≦Ki(cathepsin K)/Ki(calpain)<30)”. For the same compound, the “Sel cat. S (Ki(cathepsin S)/Ki(calpain) ratio)” value in assay [5] is “++ (Ki(cathepsin S)/Ki(calpain) ratio of ≧100)”.
On the same counts, the results for `NC(=O)C(=O)C(Cc1ccccc1)NC(=O)c1cccnc1-n1ccc(-c2ccc(F)cc2)n1` (stereo not drawn) [Example 38, N-(3-Amino-1-benzyl-2,3-dioxopropyl)-2-[3-(4-fluorophenyl)-1H-pyrazol-1-yl]nicotinamide] are “+ (10≦Ki(cathepsin B)/Ki(calpain)<30)”, 40 to 100 nM, “++ (Ki(cathepsin L)/Ki(calpain) ratio of ≧50)”, “+ (10≦Ki(cathepsin K)/Ki(calpain)<30)” and “++ (Ki(cathepsin S)/Ki(calpain) ratio of ≧100)”.
As to `COc1ccc(-c2ccn(-c3ncccc3C(=O)NC(Cc3ccccc3)C(=O)C(N)=O)n2)cc1` (stereo not drawn) [Example 48, N-(3-Amino-1-benzyl-2,3-dioxopropyl)-2-[3-(4-methoxyphenyl)-1H-pyrazol-1-yl]nicotinamide], the “Sel cat. B (Ki(cathepsin B)/Ki(calpain) ratio)” value in assay [1] is on record as “+ (10≦Ki(cathepsin B)/Ki(calpain)<30)”. For the same compound, the Ki in assay [2] was in the range of 40 to 100 nM. Also, in assay [3], the “Sel cat. L (Ki(cathepsin L)/Ki(calpain) ratio)” value is reported as “++ (Ki(cathepsin L)/Ki(calpain) ratio of ≧50)”. In addition, the “Sel cat. K (Ki(cathepsin K)/Ki(calpain) ratio)” value in assay [4] is listed as “+ (10≦Ki(cathepsin K)/Ki(calpain)<30)”. The “Sel cat. S (Ki(cathepsin S)/Ki(calpain) ratio)” value in assay [5] is recorded as “++ (Ki(cathepsin S)/Ki(calpain) ratio of ≧100)”.
On the same counts, the results for `NC(=O)C(=O)C(Cc1ccc(Cl)cc1)NC(=O)c1cccnc1-n1ccc(-c2ccccc2)n1` (stereo not drawn) [Example 50, N-[3-Amino-1-(4-chlorobenzyl)-2,3-dioxopropyl]-2-(3-phenyl-1H-pyrazol-1-yl)nicotinamide] are “+ (10≦Ki(cathepsin B)/Ki(calpain)<30)”, 40 to 100 nM, “+ (30≦Ki(cathepsin L)/Ki(calpain)<50)”, “+ (10≦Ki(cathepsin K)/Ki(calpain)<30)” and “+ (50≦Ki(cathepsin S)/Ki(calpain)<100)”.
In the same order, the values of `NC(=O)C(=O)C(Cc1ccccc1)NC(=O)c1cccnc1-n1ccc(-c2ccccc2Cl)n1` (stereo not drawn) [Example 54, N-(3-Amino-1-benzyl-2,3-dioxopropyl)-2-[3-(2-chlorophenyl)-1H-pyrazol-1-yl]nicotinamide] are “++ (Ki(cathepsin B)/Ki(calpain) ratio of ≧30)”, 40 to 100 nM, “++ (Ki(cathepsin L)/Ki(calpain) ratio of ≧50)”, “++ (Ki(cathepsin K)/Ki(calpain) ratio of ≧30)” and “++ (Ki(cathepsin S)/Ki(calpain) ratio of ≧100)”.
